According to paper PMC5729604, “Dual inhibitors of hepatitis C virus and hepatocellular carcinoma: design, synthesis and docking studies” (Future Science OA, 2017):
Values after ≈ are worked out from the molar mass of the structure shown. Values joined by “and” are separate entries in the source; they are usually repeats but may differ in a detail not shown here. Equal values may be shown once. Read-outs that look alike come from different tables or passages of the source.

What was measured:
[1] = tested on: human HCC cell line HepG2; assay: cells; assay type: cell-based; conditions: for IC50: Homo sapiens, HepG2, 72 h; for in vitro anticancer activity against HepG2, in words: IC50 <100 μg/ml potential, 100-1000 μg/ml moderate; for (LD0) HepG2 / Safe doses (100% viability of HepG2) LD0: human
Experimental: The safe compounds on RBCs (5a-g, 5i-l, 5p-r, 5v-w, 6b-g) were screened for their potential anticancer activity against human HCC cell line HepG2. HepG2 cells were exposed to the test compounds, then viability of cells was measured using neutral red uptake assay as described by Borenfreund and Puerner. This assay depends on the fact that neutral red dye can be incorporated into the lysosomes of living cells providing a quantitative assay to the cytotoxic effects. The results were interpreted to calculate both the concentration causing 50% cancer cell death (IC50) of each compound and the maximum safe concentration that cause 100% viability (LD0; to be used in the in vitro anti-HCV testing) using GraphPad InStat 3.0 software (Figure 5 & Supplementary Table 2).
HepG2 cells were routinely maintained as adherent cell cultures in RPMI-1640 medium (Lonza Group Ltd, Basel, Switzerland) supplemented with 10% fetal bovine serum (FBS; Lonza, IL, USA) at 37°C in a humidified air incubator containing 5% CO2. Cells were subcultured for 2 weeks before assay. Cell viability was assessed using trypan blue exclusion method.
HepG2 cells were washed twice in RPMI-1640 medium supplemented with 200 μM L-glutamine (Lonza) and […] 4-(2-hydroxyethyl)-1-piperazineethanesulfonic acid (HEPES) buffer (Lonza). The cells were suspended at 3 × 10^4 cells/ml in RPMI culture medium (RPMI supplemented medium and 10% FBS). The appropriate number of cells was chosen to be 3 × 10^3 cells/well (100 μl of the prepared suspension), and the cells were left to adhere on the polystyrene 96-well plates in an incubator at 37°C, 5% CO2 and 95% humidity for 24 h. The cells were washed once using RPMI supplemented medium.
A 2 mg/ml stock solution of each compound was prepared in DMF and filtered using a 0.2 μM syringe filter. The desired concentrations (20, 10, 5, 2.5 and 1.25 μg/ml) were prepared using serial dilution in a 96-well plate. Compound wells were prepared by adding 100 μl of the previously prepared concentrations to a 100 μl of HepG2 cells suspension. Parallel concentrations of the solvent were prepared to be used as controls. 5-Fluorouracil was used as a positive control. Control wells were prepared by adding 100 μl culture media to a 100 μl of HepG2 cells suspension. Blank wells contained 200 μl of culture media only (without cells or compound solution). Each set of samples was pipetted in duplicate. The plate was gently shaken, then incubated at 37°C, 5% CO2 for 72 h.
After incubation, the plate was centrifuged (2000 r.p.m. for 10 min). The media were discarded by inversion over paper towels. A working solution (100 μg/ml) of neutral red stain (Bio Basic Inc, Markham, Canada) was prepared, and 100 μl of this solution was added to each well, then the plate was gently shaken. The plate was incubated at 37°C in humidified 5% CO2 for 3 h, and then centrifuged (2000 r.p.m. for 10 min). Excess dyes were discarded, and the cells were fixed with 100 μl fixing solution (0.5% formalin with 1% calcium chloride [Sigma-Aldrich]) for 1 min. Cells were destained in 100 μl destaining solution (50% ethanol with 1% glacial acetic acid [Sigma-Aldrich]) for 5 min by shaking. The stain intensity was assayed using automated microplate reader spectrophotometer adjusted at 490 nm. Surviving cell fraction was calculated according to the following equation: [drawing 3]
The results were interpreted to calculate both the concentration causing 50% cancer cell death (IC50) of each compound and the maximum safe concentration that cause 100% viability (LD0; to be used in the in vitro anti-HCV testing) using GraphPad InStat 3.0 software.

[2] = tested on: human peripheral blood mononuclear cells (PBMCs); assay type: cell-based; conditions: 72 h
Experimental: The safe compounds on RBCs (5a-g, 5i-l, 5p-r, 5v-w, 6b-g) were subjected to the in vitro cytotoxicity assay on human peripheral blood mononuclear cells (PBMCs). Viability of cells was measured using neutral red uptake assay as described by Borenfreund and Puerner to determine the concentrations of each compound that were not cytotoxic. The results were interpreted to calculate both the lethal concentration that kills 50% of cells (LD50) and the maximum safe concentration that causes 100% viability (LD0) of each compound using GraphPad InStat 3.0 software (Figure 6 & Supplementary Table 3).
The PBMCs were isolated by density gradient centrifugation technique as described by Boyum. Blood samples were freshly collected into heparinized or ethylenediaminetetraacetic acid sterile tubes. Blood was diluted using equal volume of RPMI-1640 medium containing 25 mM HEPES and then layered over equal volume of Ficoll-Pague™ Plus (Fisher BioReagents™ Lymphocyte Separation Medium-LSM, PA, USA) and centrifuged (2000 r.p.m. for 30 min at acceleration and deceleration speeds zero & zero) at room temperature. The buffy mononuclear cell layer was collected using sterile Pasteur pipette into 50 ml sterile Falcon tube and washed twice in phosphate-buffered saline (Sigma-Aldrich) using centrifugation (1650 r.p.m. for 5 min). The isolated PBMCs viability was determined by hemocytometer count using the trypan blue exclusion method. The PBMCs were resuspended at 1 × 10^6 cells/ml in RPMI-1640 medium containing 25 mM HEPES supplemented with 10% heat-inactivated FBS. The appropriate number of cells was chosen to be 1 × 10^5 cells/well (100 μl of the prepared suspension).
A 2 mg/ml stock solution of each compound was prepared in DMF and filtered using a 0.2 μM syringe filter. The desired concentrations (20, 10, 5, 2.5 and 1.25 μg/ml) were prepared using serial dilution in a 96-well plate. Compound wells were prepared by adding 100 μl of the previously prepared concentrations to a suspension of 1 × 10^5 PBMCs in 100 μl culture media. Parallel concentrations of the solvent were prepared to be used as controls. Control wells were prepared by adding 100 μl culture media to a suspension of 1 × 10^5 PBMCs in 100 μl culture media. Blank wells contained 200 μl of culture media only (without cells or compound solution). Each set of samples was pipetted in duplicate. The plate was then gently shaken then incubated at 37°C, 5% CO2 for 72 h.
After incubation, neutral red assay was performed as described previously, and surviving cell fraction was calculated according to the previously mentioned equation. Also, the results were interpreted to calculate both the lethal concentration that kills 50% of cells (LD50) and the maximum safe concentration that cause 100% viability (LD0) of each compound using GraphPad InStat 3.0 software.

[3] = 72 h, neutral red, Table 1, read-out: IC50 (HepG2)
[4] = 72 h, neutral red, read-out: IC50 against HepG2 cells
[5] = LD50 on normal cells / IC50 on cancer cells, larger than three = highly selective
[6] = 72 h, neutral red, Supplementary Table 2, read-out: Anticancer (HepG2) IC50

SMILES | IC50 against HepG2 cells ([1]; 72 h, neutral red) [µg/mL] | IC50 [1, 3] [µg/mL] | IC50 [1, 4] [µg/mL] | IC50 [1, 6] [µg/mL] | IC100, concentration that killed 100% of cancer cells ([1]; HepG2, calculated with GraphPad InStat) | in vitro anticancer activity against HepG2, in words [1] | Selectivity index [1, 5] | (LD0) HepG2 ([1]; 72 h) [µg/mL] | Safe doses (100% viability of HepG2) LD0 ([1]; 72 h) [µg/mL] | (LD0) PBMCs [2] [µg/mL] | LD0 [2] [µg/mL] | LD50 [2] [µg/mL] | LD50 (PBMCs) [2] [µg/mL] | Selectivity index ([1]; LD50 on PBMC / IC50 on HepG2)
CC(=NN=C1SC(=Cc2cn(-c3ccccc3)nc2-c2ccc(Cl)cc2)C(=O)N1c1ccc(Cl)cc1)c1nc2ccccc2[nH]1 [Compound 5q, 2-[1-(1H-Benzimidazole-2-yl)ethylidenehydrazono]-5-{[3-(4-chlorophenyl)-1-phenyl-1H-pyrazol-4-yl]methylene}-3-(4-chlorophenyl)thiazolidin-4-one] | < 100 | 35.7 (≈ 55.1 µM) | < 50 | – | 94.54 µg/mL and < 100 µg/mL | potential in vitro anticancer activity | larger than three | 23.12 | 23.12 | 190.45 | 190.45 | 1246.96 | 1246.96 | –
CC(=NN=C1SC(=Cc2cn(-c3ccccc3)nc2-c2ccc(Cl)cc2)C(=O)N1c1ccccc1)c1cc2ccccc2o1 [Compound 5b, 2-[1-(Benzofuran-2-yl)ethylidenehydrazono]-5-{[3-(4-chlorophenyl)-1-phenyl-1H-pyrazol-4-yl]methylene}-3-phenylthiazolidin-4-one] | – | – | – | 120 (≈ 195 µM) | – | – | – | 23.02 | 23.02 | 5.83 | 5.83 | 92.27 | – | –
CC(=NN=C1SC(=Cc2cn(-c3ccccc3)nc2-c2ccccc2)C(=O)N1C1CCCCC1)c1cc2ccccc2o1 [Compound 5j, 2-[1-(Benzofuran-2-yl)ethylidenehydrazono]-5-[(1,3-Diphenyl-1H-pyrazol-4-yl)methylene]-3-cyclohexylthiazolidin-4-one] | – | 63.8 (≈ 109 µM) | – | – | – | potential in vitro anticancer activity | – | 5.08 | 5.08 | 9.90 | 9.90 | 134.00 | 134.00 | 2.10
COc1ccc(-c2nn(-c3ccccc3)cc2C=C2SC(=NN=C(C)c3nc4ccccc4[nH]3)N(c3ccc(Cl)cc3)C2=O)cc1 [Compound 5r, 2-[1-(1H-Benzimidazole-2-yl)ethylidenehydrazono]-5-{[3-(4-methoxyphenyl)-1-phenyl-1H-pyrazol-4-yl]methylene}-3-(4-chlorophenyl)thiazolidin-4-one] | – | 11 (≈ 17.1 µM) | < 50 | – | – | potential in vitro anticancer activity | larger than three | 0.18 | 0.181 | 7.33 | 7.33 | 44.00 | 44.00 | 3.99
COc1ccc(-c2nn(-c3ccccc3)cc2C=C2SC(=NN=C(C)c3cc4ccccc4o3)N(c3ccc(Cl)cc3)C2=O)cc1 [Compound 5f, 2-[1-(Benzofuran-2-yl)ethylidenehydrazono]-5-{[3-(4-methoxyphenyl)-1-phenyl-1H-pyrazol-4-yl]methylene}-3-(4-chlorophenyl)thiazolidin-4-one] | – | 69.4 (≈ 108 µM) | – | – | – | potential in vitro anticancer activity | larger than three | 10.39 | 10.39 | 5.83 | 5.83 | 259.71 | 259.71 | 3.74
CC(=NN=C1SC(=Cc2cn(-c3ccccc3)nc2-c2ccccc2)C(=O)N1c1ccccc1)c1cc2ccccc2o1 [Compound 5a, 2-[1-(Benzofuran-2-yl)ethylidenehydrazono]-5-[(1,3-Diphenyl-1H-pyrazol-4-yl)methylene]-3-phenylthiazolidin-4-one] | – | – | – | 173 (≈ 298 µM) | – | – | – | 10.15 | 10.15 | 11.17 | 11.17 | 13.99 | – | –

More lines, main results first:

IC50 against HepG2 cells ([1]; 72 h, neutral red) [µg/mL] | IC50 [1, 3] [µg/mL] | IC50 [1, 4] [µg/mL] | IC50 [1, 6] [µg/mL] | SMILES | IC100, concentration that killed 100% of cancer cells ([1]; HepG2, calculated with GraphPad InStat) | in vitro anticancer activity against HepG2, in words [1] | Selectivity index [1, 5] | (LD0) HepG2 ([1]; 72 h) [µg/mL] | Safe doses (100% viability of HepG2) LD0 ([1]; 72 h) [µg/mL] | (LD0) PBMCs [2] [µg/mL] | LD0 [2] [µg/mL] | LD50 [2] [µg/mL] | LD50 (PBMCs) [2] [µg/mL] | Selectivity index ([1]; LD50 on PBMC / IC50 on HepG2)
– | – | – | 110 (≈ 231 µM) | CC(=NN=C1SC(=C2C(=O)Nc3ccccc32)C(=O)N1c1ccccc1)c1nc2ccccc2[nH]1 [Compound 6e, 2-[1-(1H-Benzimidazole-2-yl)ethylidenehydrazono]-5-(2-oxoindolin-3-ylidene)-3-phenylthiazolidin-4-one] | – | – | – | 16.75 | 16.75 | 19.22 | 19.22 | 329.03 | – | –
– | 34.3 (≈ 70.7 µM) | < 50 | – | CC(=NN=C1SC(=C2C(=O)Nc3ccccc32)C(=O)N1C1CCCCC1)c1cc2ccccc2o1 [Compound 6d, 2-[1-(Benzofuran-2-yl)ethylidenehydrazono]-5-(2-oxoindolin-3-ylidene)-3-cyclohexylthiazolidin-4-one] | – | potential in vitro anticancer activity | – | 7.31 | 7.31 | 5.21 | 5.21 | 14.32 | 14.32 | 0.42
